Assay results published in patent US20110212108A1, “NEUREGULIN/ERBB SIGNALING AND INTEGRIN” (THE REGENTS OF THE UNIVERSITY OF CALIFORNIA, priority 2008, published 2011).

Columns and labels:
[1] = test system: Met-1 tumor (a highly metastatic mouse breast cancer); experiment: Met-1 tumor transplanted subcutaneously into nude mice; type: in vivo; settings: 100 ng/mouse/day intraperitoneally, 5 days a week; P<0.0001
Method: FIG. 15. 3KE (175-222) mutant suppressed tumorigenesis in a xenograft experiment with highly metastatic Met-1 tumor. Met-1 tumor (a highly metastatic mouse breast cancer) (4×4×4 mm) was transplanted subcutaneously into nude mice. The 3KE (175-222) mutant or vehicle was intraperitoneally injected ([…] 5 days a week) to mice, starting day 0. Data are shown as means+/−SEM. P<0.0001 by 2-way ANOVA (n=2 for control and n=3 for 3KE).
It was tested whether intraperitoneal injection of 3KE (175-222) can affect tumor growth in vivo. The Met-1 line (a highly metastatic mouse mammary tumor) (Guy et al. 1992; Cheung et al. 1997) has the polyoma virus middle T (PyV-MT) transgene, and metastasize with 100% efficiency. Met-1 (4mm×4 mm×4 mm) was transplanted to nude mice and 3KE (175-222) (100 ng/mouse/day 5 days a week) was intraperitoneally injected.

[2] = test system: mammary intraepithelial neoplasia-outgrowth (MIN-O); experiment: Outgrowth of precancer (MIN-O) in FVB mice; type: in vivo; settings: 200 ng/day/mouse intraperitoneally, 5 days a week for 4 weeks; P=0.0355
Method: FIG. 16. Inhibitory effect of daily intraperitoneal injection of 3KE (175-222) on the outgrowth of precancer (MIN-O) in FVB mice. MIN-O was transplanted into fat pads of FVB mice (two per mice) and 3KE (175-222) (200 ng/mouse/day) was injected 5 days a week for 4 weeks starting day 0. After 28 days, mice were sacrificed and the dimensions of tumors were measured. Since MIN-O grows as a thin layer, the two-dimensional size was calculated and the thickness was ignored. P=0.0355 by ANOVA between control and 3KE (175-222).
To study the effect of 3KE (175-222) on the premalignant cancer, transplantable mammary intraepithelial neoplasia-outgrowth (MIN-O) tissue lines, which were derived from hyperplastic mammary lesions in young Tg(MMTV-PyV-mT) females (Maglione et al. 2004), were used. The resulting lesions mimic the biological behavior, molecular biology, and histopathology of human ductal carcinoma in situ (Maglione et al. 2004). One mm^3 pieces of the 8w-BMINO tissues (Maglione et al. 2004) were transplanted to gland-cleared no. 4 mammary fat pads of 3-week-old FVB females bilaterally.

HaCAT keratinocytes = experiment: ERK1/2 activation in HaCAT keratinocytes, Western blotting; type: cell-based; settings: serum-starved; background Erk1/2 level high
Method: FIG. 18. […] HaCAT keratinocytes were serum-starved and incubated with wt NRG1 (175-222) or 3KE (175-222). The levels of Erk1/2 activation were determined by Western blotting.

[3] = test system: Met-1 mouse breast cancer; experiment: Met-1 mouse breast cancer transplanted to fat pad of FVB syngeneic mice; type: in vivo; settings: 200 ng/mouse/day intraperitoneally from day 5
Method: FIG. 23. Effect of the 3KE (175-241) mutation on in vivo tumorigenesis. Top: Growth curve. […] (P<0.0001 by two way ANOVA.) Bottom: Tumor size at day 18.
In the present invention, Met-1 mouse breast cancer fragment (2×2×2 mm) was transplanted to fat pad of FVB syngeneic mice (2 per animal, 5-6 mice per group) (day 0). At day 5, intraperitoneal injection of 200 ng/mouse/day wt NRG1, 3KE, heat-denatured 3KE or vehicle (PBS) everyday were started (FIG. 23). PBS contains 0.1 mg/ml mouse serum albumin as carrier. Tumor size was measured using caliper twice a week (FIG. 23). Tumor size was calculated using V=0.4×(a×b×b) where a is the longest diameter and b is a diameter perpendicular to a. Statistical analysis was performed using Prism software package.

Row | Molecule | Tumor growth of Met-1 in nude mice [1] | Outgrowth of MIN-O in FVB mice [2] | ERK1/2 activation in HaCAT cells (HaCAT keratinocytes) | Tumor growth curve of Met-1 in FVB mice ([3]; P<0.0001 by two way ANOVA) | Tumor size at day 18, Met-1 in FVB mice ([3]; t-test)
1 | 3KE (175-222): NRG1 (175-222) with Lys181/Lys185/Lys187 mutated to Glu; GTSHLVECAEEEETFCVNGGECFMVKDLSNPSRYLCKCQPGFTGARCT (SEQ ID NO:11) (integrin-binding site within human neuregulin, 3KE mutant, short version) | markedly suppressed tumor growth | effectively suppressed the outgrowth of MIN-O tumors | suppressed levels of ERK1/2 activation |  | 
2 | 3KE (175-241): NRG1α (175-241) with Lys181/Lys185/Lys187 mutated to Glu, SEQ ID NO:6 (3KE, long version) (protein, integrin-binding site within human neuregulin, residues 175-241of human neuregulin 1alpha, long version, 3KE mutant) GTSHLVECAEEEETFCVNGGECFMVKDLSNPSRYLCKCQPGFTGARCTENVPMKVQNQEKAEELYQK |  |  |  | suppressed tumor growth | suppressed tumor growth
